Experimental data: publication PMC10518717, “High-Throughput Screening and Proteomic Characterization of Compounds Targeting Myeloid-Derived Suppressor Cells” (Molecular & Cellular Proteomics : MCP, 2023)

Legend:
NUP-MDSC cell lysate [1] = experiment: Solvent-induced protein precipitation profiling, proteome-wide; format: binding, mouse; conditions: for log2 FC cmpd2_26uM/cmpd3_26uM: soluble fraction, 26 uM
Experimental: (§1) NUP-MDSCs were differentiated as described above, washed twice with PBS, resuspended in lysis buffer (PBS, 0.4% IGEPAL CA-630, 1× Halt Protease-Inhibitor Cocktail (Thermo Fisher Scientific)), and subjected to three freeze-thaw cycles. The lysate was cleared by centrifugation for 30 min at 18,000g and 4 °C. The soluble fraction was diluted to 4 mg/ml and allowed to warm up to room temperature. Equal volumes of lysate were treated in triplicates with 100 x compound stock solutions (in DMSO) or DMSO for 15 min at room temperature (final concentrations: cmpd 2: 7.8 μM (3xEC50) and 26 μM (10xEC50), cmpd 3: 10 μM and 26 μM). Similar to a previous study ([46]), each sample was divided into eight aliquots to be denatured using different concentrations (8%, 10%, 12%, 14%, 16%, 18%, 20%, 22%) of acetone:ethanol:acetic acid (50:50:0.1) in water for 20 min at 37 °C with vigorous shaking. Aggregated proteins were separated by centrifugation for 45 min at 4 °C and 3900g. Next, equal amounts of the soluble fraction were pooled for subsequent proteomic analysis.
(§2) Methanol was added to 100 μg of the pooled supernatants to a final concentration of 70% and further processed according to the R2P1 protocol ([47]), with tryptic digestion performed in 50 mM Hepes (pH 8.5). Elution fractions were combined and dried by vacuum centrifugation. Dried samples were resuspended in deionized water, and TMT labeling was performed according to Zecha et al. ([35]). All 15 samples (5 treatment conditions in triplicates) were labeled with one TMTpro plex. Next, equal amounts were pooled and desalted by C18 solid-phase extraction cartridges (Sep-Pak Vac 1 cc C18 Cartridges, Waters Corp). Desalted peptides were chromatographically separated via basic reversed phase chromatography as previously described ([36]) into 24 fractions, dried down, and stored at −20 °C until further analysis.
(§3) Peptides were analyzed via LC-MS/MS on a Vanquish Neo UHPLC coupled to an Orbitrap Eclipse Tribrid mass spectrometer (Thermo Fisher Scientific). […] The mass spectrometer was operated in data-dependent mode and positive ionization mode. Samples were measured, employing a MS3 method with real-time search. […] Iontrap-MS2 spectra for peptide identification were acquired using HCD fragmentation with 35% NCE, an isolation window of 0.7 m/z, an AGC target value of 5e4 charges, and a maxIT of 35 ms. To obtain quantitative information on TMT reporter ions, each peptide precursor was fragmented again as for MS2 analysis followed by synchronous selection of the up to 10 most intense peptide fragments in the iontrap ([37]) and further fragmentation via HCD using an NCE of 55%. For the MS3 scan, real-time search was enabled to only trigger a MS3 scan for peptides that are TMT-labeled and can be identified (searched against a mouse database, same as used for maxquant processing). The MS3 scan was recorded in the OT at 30,000 resolution (scan range 110–500 m/z, isolation window of 0.7 m/z, AGC of 2e4 charges, maxIT of 120 ms). The cycle time was set to 3 s, and the dynamic exclusion lasted for 60 s.
(§4) Raw files were searched with Maxquant (v. 2.0.3.0) against the mouse reference proteome (UP000000589, canonical, download 10/2019, 55,029 entries) with standard settings for reporter ion MS3 unless described otherwise ([39]). Isotope impurities of the TMT lot were specified to allow MaxQuant the automated correction of TMT intensities. […] Trypsin/P was specified as the proteolytic enzyme with up to two missed cleavage sites allowed. […]

NUP-MDSC cell lysate [2] = target: T1, NUP-MDSC cell lysate (Mus musculus, UniProt P59644); experiment: as above; format: binding; conditions: protein Inpp5j; soluble fraction; 26 uM
T1 construct: endogenous in cells; host or cells: mouse NUP-MDSC (lysate)
T1 sequence (P59644 1-1003): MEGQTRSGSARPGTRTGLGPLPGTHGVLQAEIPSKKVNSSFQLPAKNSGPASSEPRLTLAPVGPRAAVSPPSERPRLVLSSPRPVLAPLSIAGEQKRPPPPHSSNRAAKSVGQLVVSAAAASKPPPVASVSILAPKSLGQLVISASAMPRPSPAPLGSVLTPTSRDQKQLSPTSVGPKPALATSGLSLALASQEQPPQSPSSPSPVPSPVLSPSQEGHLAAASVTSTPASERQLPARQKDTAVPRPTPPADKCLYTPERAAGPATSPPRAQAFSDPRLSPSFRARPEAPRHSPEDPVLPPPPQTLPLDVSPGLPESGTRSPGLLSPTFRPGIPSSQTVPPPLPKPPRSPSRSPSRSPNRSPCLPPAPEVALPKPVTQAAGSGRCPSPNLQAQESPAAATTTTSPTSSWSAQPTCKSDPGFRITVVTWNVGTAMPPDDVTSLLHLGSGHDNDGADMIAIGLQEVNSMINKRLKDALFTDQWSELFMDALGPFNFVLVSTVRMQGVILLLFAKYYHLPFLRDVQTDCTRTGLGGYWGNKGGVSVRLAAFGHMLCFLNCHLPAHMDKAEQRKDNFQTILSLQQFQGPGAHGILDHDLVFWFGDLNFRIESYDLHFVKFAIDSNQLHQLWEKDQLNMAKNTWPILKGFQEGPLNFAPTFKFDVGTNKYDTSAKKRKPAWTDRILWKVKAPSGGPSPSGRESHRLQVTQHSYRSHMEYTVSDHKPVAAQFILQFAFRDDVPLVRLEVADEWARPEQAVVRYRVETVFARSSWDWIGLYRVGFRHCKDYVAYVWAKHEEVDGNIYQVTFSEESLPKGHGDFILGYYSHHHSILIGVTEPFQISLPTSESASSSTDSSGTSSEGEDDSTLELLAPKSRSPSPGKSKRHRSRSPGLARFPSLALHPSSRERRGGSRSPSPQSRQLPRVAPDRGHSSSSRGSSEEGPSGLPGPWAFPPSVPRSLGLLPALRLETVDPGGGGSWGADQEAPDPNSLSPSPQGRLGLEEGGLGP
Experimental: as §1, §2, §3, §4

log2 FC cmpd2_26uM/cmpd3_26uM (NUP-MDSC cell lysate [2]): 0.07
Structure (SMILES): CCOC(=O)c1nnn(-c2nn3nnnc3c3ccccc23)c1C [compound 2]
stabilization of proteins against solvent-induced aggregation (NUP-MDSC cell lysate [1]; 7.8 μM and 26 μM, vs compound 3): significant stabilization of several proteins
log2 FC cmpd2_26uM/cmpd3_26uM (NUP-MDSC cell lysate [1]; protein Magohb;Magoh): 0.25
log2 FC cmpd2_26uM/cmpd3_26uM (NUP-MDSC cell lysate [1]; protein Srcap): -0.12
